The source of these data is patent US11945794B2, “Nuclear transport modulators and uses thereof” (Karyopharm Therapeutics Inc., priority 2013, dated 2024).

Assay [1] concerns the target T1, mutant CRM1-Cys528Ser (Homo sapiens, UniProt O14980, C528S).
T1 construct: expressed in transfected cells; host or cells: U2OS (osteosarcoma) cells stably expressing Rev-GFP
Briefly: Cys 528 mutation assay, Rev-GFP localization. In kind it is cell-based. The following applies: 30 μM, U2OS Rev-GFP cells. On the procedure:
U2OS (osteosarcoma) cells stably expressing GFP-tagged HIV-Rev fused to the cAMP-dependent protein kinase inhibitor (PM) nuclear export signal (Rev-GFP) were transiently transfected with constructs expressing wild-type CRM1 or mutant CRM1-Cys528Ser for 36 hours. The transient transfection efficiency in the experiment was estimated to be 50%.

Assay [2] deals with U251MG spheroids. The assay is described as follows: Glioblastoma spheroid assay. It is filed as cell-based. The following applies: 1 μM, U251MG spheroids in Matrigel, compared with control. Here is the method:
(§1) Cells (U87MG and U251MG) were detached and re-suspended at 1×10^5 cells/mL. 5,000 cells were loaded into a hanging drop plate (3D Biomatrix Cat. No.: HDP1096) and incubated for 5 days (37° C.; 5% CO2) to form spheroids. 300 μL of Matrix Gel (Corning Matrigel Cat #354234; Lot #3330622) were plated per well in a 24-well plate and incubated for 30 minutes. Spheroids were removed from the hanging drop plate and seeded into the […]™ (1 spheroid per well). Spheroids were incubated for 15 minutes and then 460 μL media was added. […] The plates were analyzed at several time points using 40× and 20× phase microscopes, and photos of the spheroids were taken.

The test system of assay [3] is U87MG spheroids. Briefly: Glioblastoma spheroid assay. In kind it is cell-based. To be noted: 1 μM, U87MG spheroids in Matrigel, compared with control. Here is the method:
as §1

In assay [4] the test system is Hep 3B xenograft. The assay is described as follows: Hep3B hepatocellular carcinoma xenograft model. It is filed as in vivo, mouse. On the procedure: Hep 3B cells (ATCC #HTB-8064) hepatocellular carcinoma cells were obtained from ATCC. These cells were grown in DMEM medium supplemented with 10% fetal bovine serum, 1% penicillin and streptomycin. Cells were sub-cultured by dilution at a ratio of 1:4. Hep3B cells were harvested by centrifugation and counted using a hemocytometer. Cells were resuspended in PBS at a concentration of 5×10^7 cells per mL. Cells were placed on ice, and then mixed with an equal volume of Matrigel™ (BD Biosciences CB-40234). This mixture was kept on ice and injected into the left flank of mice in a volume of 0.2 mL, equivalent to 5×10^6 cells per mouse. Thirty-two (32) SCID mice were inoculated subcutaneously in the left flank with 5×10^6 Hep 3B cells. Treatment was initiated when the tumors reached a mean volume of 103.7 mm^3 (standard deviation±30 mm^3, range 17-183 mm^3). Mice were allocated to four (4) groups of eight (8) mice such that mean tumor volume in each group was within the range of 95 to 104 mm^3. […] With the exception of doxorubicin (which was given IP), all compounds were given by oral gavage. […] Animal weights and conditions were recorded daily, and tumors were measured on Mondays, Wednesdays and Fridays.

For assay [5], the system named is XPO1 cargo proteins: p53, IκB, Foxo1A, PP2A, p21 and p27. The assay is described as follows: XPO1 cargo localization assay in U2OS cells (immunofluorescence). In kind it is cell-based. The following applies: 500 nM, 4 to 24 hours. Here is the method: The fixed cells were analyzed by immunofluorescence (IF) for the nuclear localization of the following XPO1 cargo proteins: p53, IκB, Foxo1A, PP2A, p21 and p27. Nuclei were stained with DAPI. Images were taken at 20× magnification.

Assay [6] has as its target T2, CRM1 (Homo sapiens, UniProt O14980).
T2 construct: endogenous in cells; host or cells: U2OS cells stably expressing Rev-GFP
The assay is described as follows: Washout assay in U2OS Rev-GFP cells. In kind it is cell-based. To be noted: 24 hour washout versus no washout. On the procedure:
After 4 hours, one of the plates was fixed with PFA (no washout, condition A). […] A second plate was fixed with PFA after a 4 hour washout (4 hr washout, condition B) and a third plate was fixed with PFA after a 24 hour washout (24 h washout, condition C). Cells were counterstained with the nuclear dye DAPI.

T2 sequence (O14980 whole entry): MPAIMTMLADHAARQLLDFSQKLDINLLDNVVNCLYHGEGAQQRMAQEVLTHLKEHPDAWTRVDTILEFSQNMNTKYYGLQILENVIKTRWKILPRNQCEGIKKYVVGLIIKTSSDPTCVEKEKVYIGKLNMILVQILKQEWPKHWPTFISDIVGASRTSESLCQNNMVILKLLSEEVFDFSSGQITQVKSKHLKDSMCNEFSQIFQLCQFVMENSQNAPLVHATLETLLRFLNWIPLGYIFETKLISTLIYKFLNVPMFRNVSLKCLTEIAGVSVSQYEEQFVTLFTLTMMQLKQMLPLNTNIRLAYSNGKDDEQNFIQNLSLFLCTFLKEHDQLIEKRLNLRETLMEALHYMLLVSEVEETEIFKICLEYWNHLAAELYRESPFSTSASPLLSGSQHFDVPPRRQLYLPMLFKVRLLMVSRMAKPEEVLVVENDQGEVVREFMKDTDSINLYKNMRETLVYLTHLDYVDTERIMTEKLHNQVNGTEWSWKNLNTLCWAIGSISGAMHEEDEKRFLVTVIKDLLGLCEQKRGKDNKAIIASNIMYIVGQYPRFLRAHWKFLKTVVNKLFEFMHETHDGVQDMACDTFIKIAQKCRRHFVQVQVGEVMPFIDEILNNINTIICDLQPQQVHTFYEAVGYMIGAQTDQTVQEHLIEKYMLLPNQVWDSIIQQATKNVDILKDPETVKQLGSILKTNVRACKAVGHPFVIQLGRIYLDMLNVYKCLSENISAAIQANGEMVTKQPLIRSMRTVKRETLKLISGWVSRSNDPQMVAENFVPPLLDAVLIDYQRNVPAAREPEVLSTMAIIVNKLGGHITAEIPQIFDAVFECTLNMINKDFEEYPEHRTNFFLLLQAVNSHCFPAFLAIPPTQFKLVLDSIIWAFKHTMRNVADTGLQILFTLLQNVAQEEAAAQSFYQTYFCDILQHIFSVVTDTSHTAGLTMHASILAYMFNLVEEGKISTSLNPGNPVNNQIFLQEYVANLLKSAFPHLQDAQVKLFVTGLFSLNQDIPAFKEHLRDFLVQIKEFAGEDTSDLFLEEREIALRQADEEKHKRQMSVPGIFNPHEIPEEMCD
T1 sequence (O14980 whole entry C528S): as the sequence (O14980 whole entry) above, with C528S counted along it

With `NC(=O)/C(=C/n1cnc(-c2cc(C(F)(F)F)cc(C(F)(F)F)c2)n1)c1cncnc1` [Compound 124, (E)-3-(3-(3,5-bis(trifluoromethyl)phenyl)-1H-1,2,4-triazol-1-yl)-2-(pyrimidin-5-yl)acrylamide], the “Rev-GFP localization, mutant CRM1-Cys528Ser co-expressed” value in assay [1] was “did not induce nuclear localization of Rev-GFP”. Besides, the spheroid cell growth entry in assay [2] is reported as “shrinking of the spheroid with complete elimination of any cell growth out of the sphere”; in assay [3], “significant reduction in cell growth”. Moreover, the mean tumor volume entry in assay [4] (5 or 15 mg/kg PO daily, SCID mice, compared to vehicle) is recorded as “mean tumor volume was reduced”. In addition, the “mean tumor volume compared with standard of care” value in assay [4] (particularly 15 mg/kg PO daily, versus doxorubicin) was “compared favorably”. Moreover, the “nuclear localization of XPO1 cargo proteins” value in assay [5] is on record as “increased or complete nuclear localization of XPO1 cargoes”. Further, in assay [6], the “decrease in effectiveness after a 24 hour washout” value came out at 6 fold.
